Results as given in patent US12083105B2, “Compositions and methods for treating adult-onset neuronal ceroid lipofuscinosis (Kufs disease)” (CORNELL UNIVERSITY, priority 2020, dated 2024).

System: ATP5G
Assay: ATP5G accumulation in ANCL iNs (quantitative immunoblotting)
Type: cell-based, human
Conditions: for accumulation of ATP5G: ANCL iNs treated for 56 d (prevention), FIG. 7F; for ATP5G levels: added to ANCL iNs after 56 days of lipofuscin accumulation, followed 3 weeks (treatment), compared to control, FIG. 7H
Procedure: ANCL patient-derived fibroblasts were treated with 200 μM of L1 or Dfx, or vehicle (0.1% DMSO=Control) for 72 h, before measuring the UV-Vis absorbance spectra of immunoprecipitated CSPα eluted by trypsinization (solid lines). Spectra were re-read after 10 min of 0.1 N HCl treatment (dashed lines). The experiments shown in FIGS. 7B-7I, were conducted using ANCL fibroblasts converted to iNs using BAM+ND1 technique. […] Quantitative immunoblotting was used to measure levels of oligomerized and fully palmitoylated CSPα as well as total SNAP-25. Oligo=oligomers; Palm=palmitoylated. […] The interaction of CSPα with SNAP-25 in ANCL iNs was measured by immunoprecipitating SNAP-25 followed by quantitative immunoblotting of co-immunoprecipitated CSPα (normalized to SNAP-25 IP). Note that mainly CSPα monomers and not oligomers were detected bound to SNAP-25. Control=control sham IP without IgG. […] Turnover of SNAP-25 was determined by cycloheximide chase, while maintaining the iron-chelators or vehicle in the medium. […] In the experiments shown in FIGS. 7E-7G, ANCL iNs treated with L1, Dfx, or vehicle for 56 d and analyzed. […] The levels of lipofuscin were determined by ELISA. In the experiments shown in FIGS. 7H-7I 56 day old untreated ANCL iNs were treated with L1, Dfx, or vehicle, and analyzed. […] Data are from FIG. 7A representative of n=4, FIG. 7B n=4, FIG. 7C n=4, FIG. 7D n=7, FIG. 7F n=4, FIG. 7G n=4, FIG. 7H n=6, FIG. 7I n=3. In FIGS. 7B-7C and FIGS. 7F-7G *P<0.05; **P<0.01; ****P<0.0001 by two-tailed Student's t-test. #P<0.05 by Mann-Whitney-Wilcoxon U test. In FIG. 7D-7C and FIGS. 7H-7I **P<0.01; ***P<0.001; ****P<0.0001 by two-way ANOVA; ##P<0.01; ###P<0.001; ####P<0.0001 by Tukey's multiple comparisons test.
For SDS-PAGE, 10-15% Laemmli gels (10.3% T and 3.3% C) were used to separate proteins on Bio-Rad apparati. Proteins were transferred onto nitrocellulose (pore-size=[…]; GE Healthcare) and blocked with 5% w/v fat-free dry milk in tris buffered saline, pH 7.5 supplemented with 0.1% Tween 20 (TBS-T). Immunoblotting was performed by incubating the blocked membranes with primary antibodies in blocking buffer for 8-16 hours. Following 5 washes with TBS-Tween 20 (0.1%). Blots were incubated with secondary antibodies (goat anti-rabbit conjugated to IRDye […] or 800CW; LI-COR) at 1/5000 in blocking buffer for 1-3 hours. Immunoblots were washed 5× with TBS-T and dried, then scanned on Odyssey CLx (LI-COR) and quantified using Image-Studio software (LI-COR).
For ATPSG immunoblots, following the transfer, nitrocellulose membranes were dried and fixed for 15 min at room temperature in 0.2% glutaraldehyde in PBS. […]
Effect of iron chelators on the accumulation of lipofuscin was monitored by ELISA for lipofuscin or based on lipofuscin autofluorescence. […]

Row | SMILES | accumulation of ATP5G | ATP5G levels
1 | CC(=O)N(O)CCCCCNC(=O)CCC(=O)N(O)CCCCCNC(=O)CCC(=O)N(O)CCCCCN [Dfx, N′-[5-(Acetyl-hydroxy-amino)pentyl]-N-[5-[3-(5-aminopentyl-hydroxy-carbamoyl)propanoylamino]pentyl]-N-hydroxy-butane diamide] | trend toward reduced accumulation | diminished down to similar levels as observed in the prevention experiments
2 | Cc1c(O)c(=O)ccn1C [L1, 3-hydroxy-1,2-dimethyl-4(1H)-pyridone] | trend toward reduced accumulation | diminished down to similar levels as observed in the prevention experiments
